Experimental data reported in article PMC10707468, “Pharmacokinetics of Novel Dopamine Transporter Inhibitor CE-123 and Modafinil with a Focus on Central Nervous System Distribution” (International Journal of Molecular Sciences, 2023).

Columns and labels:
[1] = target: CYP2C19 (Homo sapiens, UniProt P33261); assay: CYP P450 inhibition in HLMs (Eurofins Panlabs); type: in vitro ADME; set-up: from tissue; host or cells: human liver microsomes (HLMs); settings: S-CE-123 10 µM
Protocol: (§1) In vitro metabolism assays for the cytochrome (CYP) P450 inhibition of S-CE-123 was outsourced to Eurofins Panlabs (St. Charles, MO, USA, study number 100050638). Briefly, 0.1 mg/mL of the HLMs was incubated for 10 min at 37 °C with substrate (10 µM phenacetin for CYP1A, 100 µM bupropion for CYP2B6, 10 µM amodiaquine for CYP2C8, 10 µM diclofenac for CYP2C9, 0.5 µM omeprazole for CYP2C19, 5 µM dextromethorphan for CYP2D6, 5 µM midazolam for CYP3A, and 50 µM testosterone for CYP3A4) in the presence/absence of S-CE-123 (10 µM). The peak areas corresponding to the metabolite of each substrate were recorded. The percent of control activity was then calculated by comparing the peak area obtained in the presence of the test compound to that obtained in the absence of the test compound. Subsequently, the percent inhibition was calculated by subtracting the percent control activity from 100 for each compound. The IC50 values (concentration causing a half-maximal inhibition of control values) were determined using non-linear regression analysis of the concentration–response curve using Hill equation curve fitting.

[2] = target: CYP2C9 (Homo sapiens, UniProt P11712); assay: CYP P450 inhibition in HLMs (Eurofins Panlabs); type: in vitro ADME; set-up: from tissue; host or cells: human liver microsomes (HLMs); settings: microsomes, S-CE-123 10 µM, range given for CYP2C9, CYP1A and CYP2D6 together, read-out: inhibition of control values
Protocol: as §1

[3] = target: T1, CYP1A (Homo sapiens, UniProt P05177); assay: CYP P450 inhibition in HLMs (Eurofins Panlabs); type: in vitro ADME; settings: microsomes, S-CE-123 10 µM, range given for CYP2C9, CYP1A and CYP2D6 together, read-out: inhibition of control values
T1 construct: from tissue; host or cells: human liver microsomes (HLMs)
T1 sequence (P05177 2-516 limits assumed): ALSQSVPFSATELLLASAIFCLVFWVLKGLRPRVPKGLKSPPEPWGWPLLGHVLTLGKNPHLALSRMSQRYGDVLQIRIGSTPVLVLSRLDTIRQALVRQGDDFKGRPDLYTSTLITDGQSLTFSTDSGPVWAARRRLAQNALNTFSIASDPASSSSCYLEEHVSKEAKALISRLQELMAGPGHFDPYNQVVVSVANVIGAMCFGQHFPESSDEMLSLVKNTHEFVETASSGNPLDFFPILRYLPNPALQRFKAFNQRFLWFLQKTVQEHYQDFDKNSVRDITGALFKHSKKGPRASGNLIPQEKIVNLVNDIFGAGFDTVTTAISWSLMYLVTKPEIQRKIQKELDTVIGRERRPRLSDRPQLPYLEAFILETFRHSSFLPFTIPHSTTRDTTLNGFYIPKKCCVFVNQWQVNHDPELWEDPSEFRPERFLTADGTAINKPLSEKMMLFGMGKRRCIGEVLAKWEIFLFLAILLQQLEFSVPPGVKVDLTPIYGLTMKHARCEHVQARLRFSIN
Protocol: as §1

[4] = target: T2, CYP2D6 (Homo sapiens, UniProt P10635); assay: CYP P450 inhibition in HLMs (Eurofins Panlabs); type: in vitro ADME; settings: microsomes, S-CE-123 10 µM, range given for CYP2C9, CYP1A and CYP2D6 together, read-out: inhibition of control values
T2 construct: from tissue; host or cells: human liver microsomes (HLMs)
Protocol: as §1

[5] = target: T3, CYP2B6 (Homo sapiens, UniProt P20813); assay: CYP P450 inhibition in HLMs (Eurofins Panlabs); type: in vitro ADME; settings: S-CE-123 10 µM
T3 construct: from tissue; host or cells: human liver microsomes (HLMs)
T3 sequence (P20813 1-491): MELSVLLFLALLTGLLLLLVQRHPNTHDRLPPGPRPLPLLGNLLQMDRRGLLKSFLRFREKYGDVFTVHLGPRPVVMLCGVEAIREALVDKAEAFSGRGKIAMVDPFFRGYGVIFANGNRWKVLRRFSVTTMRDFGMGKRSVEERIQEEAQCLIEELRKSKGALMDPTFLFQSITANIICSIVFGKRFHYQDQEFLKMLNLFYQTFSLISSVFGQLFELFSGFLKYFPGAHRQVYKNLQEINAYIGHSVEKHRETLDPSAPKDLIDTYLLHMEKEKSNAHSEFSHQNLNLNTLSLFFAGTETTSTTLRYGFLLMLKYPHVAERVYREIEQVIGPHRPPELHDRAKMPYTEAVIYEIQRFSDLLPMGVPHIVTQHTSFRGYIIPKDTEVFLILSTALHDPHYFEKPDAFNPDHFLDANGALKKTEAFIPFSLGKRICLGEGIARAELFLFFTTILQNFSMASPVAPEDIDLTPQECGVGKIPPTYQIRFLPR
Protocol: as §1

[6] = tested on: SERT; set-up: method as in PMID 29410048; settings: cited from earlier work
[7] = tested on: NET; set-up: method as in PMID 29410048; settings: cited from earlier work
[8] = tested on: CYP3A; assay: CYP P450 inhibition in HLMs (Eurofins Panlabs); type: in vitro ADME, human; settings: S-CE-123 10 µM
Protocol: as §1

[9] = tested on: human isoforms of the DAT; set-up: method as in PMID 29230168; settings: HEK293 cells; cited from earlier work
[10] = In vitro plasma stability assay; type: in vitro ADME; settings: rat plasma
Protocol: In vitro plasma stability assay was used in the scope of the validation studies. Briefly, 40 μL of blank rat plasma or blank rat plasma containing 10% DMF as an inhibitor was first pre-warmed for 5 min at 37 °C using a Thermomixer® comfort (Eppendorf, Hamburg, Germany). […] The reaction was terminated after 0, 1, 2, and 4 h, via the addition of 50 μL of ice-cold ACN containing the IS solution. The samples were centrifuged for 10 min at 3000× g at 4 °C. The supernatant of all samples was diluted with 0.1% FA in water, 1:2 (v:v), and 10 µL of the sample was injected onto the LC–HRMS system.

Chain of CYP2C19 (P33261 whole entry): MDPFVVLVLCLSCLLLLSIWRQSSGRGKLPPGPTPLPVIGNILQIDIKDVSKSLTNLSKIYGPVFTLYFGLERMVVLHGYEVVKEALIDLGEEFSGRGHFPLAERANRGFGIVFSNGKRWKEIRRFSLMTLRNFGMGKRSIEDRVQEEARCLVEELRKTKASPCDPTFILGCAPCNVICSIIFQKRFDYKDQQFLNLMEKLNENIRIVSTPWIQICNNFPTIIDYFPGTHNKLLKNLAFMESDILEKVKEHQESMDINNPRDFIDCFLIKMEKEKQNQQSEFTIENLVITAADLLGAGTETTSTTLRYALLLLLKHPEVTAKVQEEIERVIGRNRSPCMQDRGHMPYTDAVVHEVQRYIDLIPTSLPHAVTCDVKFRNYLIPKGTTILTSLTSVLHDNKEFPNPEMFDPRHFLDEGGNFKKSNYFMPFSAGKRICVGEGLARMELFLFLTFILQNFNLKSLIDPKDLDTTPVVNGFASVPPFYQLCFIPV
T2 sequence (P10635 whole entry): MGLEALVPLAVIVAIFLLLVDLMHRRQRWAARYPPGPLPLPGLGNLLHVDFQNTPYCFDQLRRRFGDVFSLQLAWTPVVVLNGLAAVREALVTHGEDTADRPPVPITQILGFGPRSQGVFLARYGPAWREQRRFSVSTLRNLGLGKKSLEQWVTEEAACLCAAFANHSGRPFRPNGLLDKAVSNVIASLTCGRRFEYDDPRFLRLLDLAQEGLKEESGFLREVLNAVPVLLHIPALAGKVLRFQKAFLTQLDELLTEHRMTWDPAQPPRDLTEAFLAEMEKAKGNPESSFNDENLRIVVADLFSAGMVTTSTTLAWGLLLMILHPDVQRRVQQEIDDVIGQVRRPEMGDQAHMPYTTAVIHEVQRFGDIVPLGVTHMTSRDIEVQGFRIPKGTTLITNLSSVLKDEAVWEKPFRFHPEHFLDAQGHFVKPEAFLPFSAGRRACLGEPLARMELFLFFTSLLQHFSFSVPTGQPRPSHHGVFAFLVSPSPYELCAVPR
Chain of CYP2C9 (P11712 whole entry): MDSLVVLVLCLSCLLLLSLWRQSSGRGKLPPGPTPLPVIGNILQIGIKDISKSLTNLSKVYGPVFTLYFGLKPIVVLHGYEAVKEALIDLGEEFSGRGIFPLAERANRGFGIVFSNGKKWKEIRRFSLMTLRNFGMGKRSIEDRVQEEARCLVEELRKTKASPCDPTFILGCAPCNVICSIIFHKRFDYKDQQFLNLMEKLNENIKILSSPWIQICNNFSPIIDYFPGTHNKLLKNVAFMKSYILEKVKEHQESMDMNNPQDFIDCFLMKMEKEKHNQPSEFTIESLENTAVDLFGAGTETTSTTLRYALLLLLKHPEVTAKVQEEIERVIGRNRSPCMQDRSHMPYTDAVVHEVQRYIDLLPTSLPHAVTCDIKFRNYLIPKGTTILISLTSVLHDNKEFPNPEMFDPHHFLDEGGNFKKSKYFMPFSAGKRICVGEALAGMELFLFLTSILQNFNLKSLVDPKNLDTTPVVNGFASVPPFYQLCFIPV

Row | Structure (SMILES) | inhibition of control values [1] | inhibition at 10 min, 10 µM [2] | inhibition at 10 min, 10 µM [3] | inhibition at 10 min, 10 µM [4] | inhibition of control values [5] | activity on SERT [6] | activity on NET [7] | inhibition of control values [8] | fold higher in vitro activity on the DAT than its R-enantiomer [9] | R-modafinil level remaining ([10]; 4 h incubation at 37 °C) | metabolized ([10]; after 4 h at 37 °C)
1 | [O-][S@@+](Cc1cncs1)C(c1ccccc1)c1ccccc1 [S-CE-123] | Low inhibition | 47 to 68% | 47 to 68% | 47 to 68% | Low inhibition | negligible activity | negligible activity | Low inhibition | ~8 fold |  | 
2 | NC(=O)C[S@@+]([O-])C(c1ccccc1)c1ccccc1 [R-modafinil, reference compound] |  |  |  |  |  |  |  |  |  | about 50% | 50%
